Data on 32 compounds can be found in ChEMBL document CHEMBL5236620, “Discovery of 2-Amino-7-sulfonyl-7H-pyrrolo[2,3-d]pyrimidine Derivatives as Potent Reversible FGFR Inhibitors with Gatekeeper Mutation Tolerance: Design, Synthesis, and Biological Evaluation” (J Med Chem, 2022).

Data set [1] is described as follows: in vitro. Conditions: mouse, liver microsomes.
Description: Metabolic stability in mouse liver microsomes assessed as intrinsic clearance pretreated for 5 mins followed by NADPH addition and measured for 45 mins by LC/MS analysis
Data set [2] is described as follows: in vitro. Conditions: human.
Description: Metabolic stability in human assessed as intrinsic clearance
Data set [3] is described as follows: in vitro. The conditions noted are these: mouse, liver microsomes. This is another data set of the same source. In general terms: Microsomes from liver hold many membrane-bound enzymes, among them those of drug oxidation.
Description: Metabolic stability in mouse liver microsomes assessed as half life pretreated for 5 mins followed by NADPH addition and measured for 45 mins by LC/MS analysis
Data set [4] concerns the target Fibroblast growth factor receptor 4 (Homo sapiens, UniProt P22455).
Description: Inhibition of FGFR4 (unknown origin) using TK as substrate incubated for 1 hr in presence of biotin/ATP by HTRF assay
In data set [5] the test system is BaF3. Description: Cytotoxicity against mouse BaF3 cells expressing TEL-fused FGFR4 V550L mutant assessed as inhibition of cell growth incubated for 72 hrs by CCK-8 assay. The class given is functional, cell-based. The conditions noted are these: BaF3, 72 h.
In the next data set the test system is Huh-7. Description: cells. The conditions noted are these: Homo sapiens, Huh-7, 72 h.
Data set [6] can be described thus: in vitro. Conditions: mouse.
Description: Metabolic stability in mouse assessed as intrinsic clearance
The subject of data set [7] is BaF3. In words: Cytotoxicity against mouse BaF3 cells expressing wild type TEL-fused FGFR4 assessed as inhibition of cell growth incubated for 72 hrs by CCK-8 assay. The class given is functional, cell-based. The conditions noted are these: BaF3, 72 h.
Data set [8] is described as follows: in vitro. The conditions noted are these: human, liver microsomes.
Description: Metabolic stability in human liver microsomes assessed as half life pretreated for 5 mins followed by NADPH addition and measured for 45 mins by LC/MS analysis
Data set [9] deals with BaF3. Description: Cytotoxicity against mouse BaF3 cells assessed as inhibition of cell growth incubated for 72 hrs by CCK-8 assay. It counts as functional, cell-based. Conditions: BaF3, 72 h.
Data set [10] in a line: in vitro. The conditions noted are these: human, liver microsomes. The source holds these as a separate data set.
Description: Metabolic stability in human liver microsomes assessed as intrinsic clearance pretreated for 5 mins followed by NADPH addition and measured for 45 mins by LC/MS analysis
Data set [11] has as its target Fibroblast growth factor receptor 3 (Homo sapiens, UniProt P22607).
Description: Inhibition of FGFR3 (unknown origin) using TK as substrate incubated for 1 hr in presence of biotin/ATP by HTRF assay
Data set [12] deals with Janus Kinase (JAK) (Homo sapiens) (UniProt P52333+P23458+O60674+P29597). Conditions: dose 500.0 nM.
Description: Inhibition of JAK (unknown origin) at 500 nM
Data set [13] has as its target Fibroblast growth factor receptor 4 (Mus musculus) (UniProt Q03142). The conditions noted are these: BaF3, dose 50-400 nM, time 4.0 hrs.
The target in data set [14] is Fibroblast growth factor receptor 2 (Homo sapiens, UniProt P21802).
Description: Inhibition of FGFR2 (unknown origin) using TK as substrate incubated for 1 hr in presence of biotin/ATP by HTRF assay
Data set [15] addresses Fibroblast growth factor receptor 4 (Mus musculus) (UniProt Q03142). Conditions: BaF3, dose 50-400 nM, time 4.0 hrs. The source holds these as a separate data set.
The target is the same in data set [16]. The conditions noted are these: BaF3, dose 50-400 nM, time 4.0 hrs. The source holds these as a separate data set.

The structures appear in SMILES notation. The source made the active and inactive calls. A value given as a limit tells only on which side of the number the result lay.

Fibroblast growth factor receptor 4, sequence (P22455 whole entry, the tested form may be a part): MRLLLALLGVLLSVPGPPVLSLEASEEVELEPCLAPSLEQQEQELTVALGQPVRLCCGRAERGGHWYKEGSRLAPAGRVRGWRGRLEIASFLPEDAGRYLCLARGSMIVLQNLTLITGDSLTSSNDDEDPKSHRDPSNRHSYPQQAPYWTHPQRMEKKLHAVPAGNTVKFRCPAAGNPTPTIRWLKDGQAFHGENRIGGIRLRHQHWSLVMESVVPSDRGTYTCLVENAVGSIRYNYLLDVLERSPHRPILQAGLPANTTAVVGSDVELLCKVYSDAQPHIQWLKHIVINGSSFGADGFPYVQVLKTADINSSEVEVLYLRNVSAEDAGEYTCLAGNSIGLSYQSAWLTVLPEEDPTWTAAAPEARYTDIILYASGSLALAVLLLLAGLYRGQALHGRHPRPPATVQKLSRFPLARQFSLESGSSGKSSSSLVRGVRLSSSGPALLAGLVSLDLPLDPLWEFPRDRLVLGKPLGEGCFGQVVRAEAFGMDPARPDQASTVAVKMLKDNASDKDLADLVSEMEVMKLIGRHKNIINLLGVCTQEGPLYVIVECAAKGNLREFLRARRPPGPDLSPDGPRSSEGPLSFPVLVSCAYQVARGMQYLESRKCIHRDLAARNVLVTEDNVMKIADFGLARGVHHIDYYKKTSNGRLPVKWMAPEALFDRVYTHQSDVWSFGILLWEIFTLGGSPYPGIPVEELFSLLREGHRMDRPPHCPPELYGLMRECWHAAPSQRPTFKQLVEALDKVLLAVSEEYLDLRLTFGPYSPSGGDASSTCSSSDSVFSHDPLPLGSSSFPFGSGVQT
Fibroblast growth factor receptor 4 (Mus musculus), sequence (Q03142 17-799 limits assumed): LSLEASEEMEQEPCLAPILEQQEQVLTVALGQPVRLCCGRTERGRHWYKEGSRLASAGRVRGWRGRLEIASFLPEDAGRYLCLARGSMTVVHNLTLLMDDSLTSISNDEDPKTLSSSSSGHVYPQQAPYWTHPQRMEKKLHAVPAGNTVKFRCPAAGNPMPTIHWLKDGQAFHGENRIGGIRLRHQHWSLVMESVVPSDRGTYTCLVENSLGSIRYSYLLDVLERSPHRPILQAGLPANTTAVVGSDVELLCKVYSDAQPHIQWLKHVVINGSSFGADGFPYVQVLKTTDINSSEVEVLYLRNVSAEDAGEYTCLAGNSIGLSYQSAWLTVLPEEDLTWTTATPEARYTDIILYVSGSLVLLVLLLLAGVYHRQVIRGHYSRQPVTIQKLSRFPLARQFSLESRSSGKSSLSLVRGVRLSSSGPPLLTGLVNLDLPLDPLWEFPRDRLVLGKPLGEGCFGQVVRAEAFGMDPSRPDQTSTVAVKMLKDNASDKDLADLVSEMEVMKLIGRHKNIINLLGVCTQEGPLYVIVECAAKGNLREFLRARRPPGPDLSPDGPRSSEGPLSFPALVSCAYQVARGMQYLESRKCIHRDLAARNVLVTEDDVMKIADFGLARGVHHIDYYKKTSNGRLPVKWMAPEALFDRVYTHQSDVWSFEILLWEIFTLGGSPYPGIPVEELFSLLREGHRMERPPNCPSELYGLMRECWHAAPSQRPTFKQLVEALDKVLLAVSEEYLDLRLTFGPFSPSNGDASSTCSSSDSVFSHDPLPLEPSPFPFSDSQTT
Fibroblast growth factor receptor 2, sequence (P21802 whole entry): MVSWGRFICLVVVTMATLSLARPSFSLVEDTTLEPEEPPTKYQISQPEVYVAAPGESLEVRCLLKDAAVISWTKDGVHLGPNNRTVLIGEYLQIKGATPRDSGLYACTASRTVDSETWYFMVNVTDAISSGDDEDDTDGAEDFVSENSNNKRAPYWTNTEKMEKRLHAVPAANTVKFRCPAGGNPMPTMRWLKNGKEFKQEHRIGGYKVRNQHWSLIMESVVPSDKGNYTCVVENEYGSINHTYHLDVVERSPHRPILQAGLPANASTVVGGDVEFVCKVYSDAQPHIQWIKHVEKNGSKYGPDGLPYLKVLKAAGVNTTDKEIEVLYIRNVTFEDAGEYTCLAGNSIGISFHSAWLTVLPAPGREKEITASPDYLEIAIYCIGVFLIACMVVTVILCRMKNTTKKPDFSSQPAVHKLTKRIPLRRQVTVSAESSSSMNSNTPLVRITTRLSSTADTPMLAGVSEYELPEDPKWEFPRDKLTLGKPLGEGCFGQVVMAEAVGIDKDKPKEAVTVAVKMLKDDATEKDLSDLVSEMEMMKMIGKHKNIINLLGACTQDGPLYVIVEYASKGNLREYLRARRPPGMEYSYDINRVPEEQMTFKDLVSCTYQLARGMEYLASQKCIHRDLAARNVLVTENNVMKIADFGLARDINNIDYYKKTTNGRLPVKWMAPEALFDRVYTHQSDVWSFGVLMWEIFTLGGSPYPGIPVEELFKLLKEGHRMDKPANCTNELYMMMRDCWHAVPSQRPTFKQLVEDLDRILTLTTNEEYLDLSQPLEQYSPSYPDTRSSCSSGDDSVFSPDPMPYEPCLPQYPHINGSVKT
Fibroblast growth factor receptor 3, sequence (P22607 whole entry): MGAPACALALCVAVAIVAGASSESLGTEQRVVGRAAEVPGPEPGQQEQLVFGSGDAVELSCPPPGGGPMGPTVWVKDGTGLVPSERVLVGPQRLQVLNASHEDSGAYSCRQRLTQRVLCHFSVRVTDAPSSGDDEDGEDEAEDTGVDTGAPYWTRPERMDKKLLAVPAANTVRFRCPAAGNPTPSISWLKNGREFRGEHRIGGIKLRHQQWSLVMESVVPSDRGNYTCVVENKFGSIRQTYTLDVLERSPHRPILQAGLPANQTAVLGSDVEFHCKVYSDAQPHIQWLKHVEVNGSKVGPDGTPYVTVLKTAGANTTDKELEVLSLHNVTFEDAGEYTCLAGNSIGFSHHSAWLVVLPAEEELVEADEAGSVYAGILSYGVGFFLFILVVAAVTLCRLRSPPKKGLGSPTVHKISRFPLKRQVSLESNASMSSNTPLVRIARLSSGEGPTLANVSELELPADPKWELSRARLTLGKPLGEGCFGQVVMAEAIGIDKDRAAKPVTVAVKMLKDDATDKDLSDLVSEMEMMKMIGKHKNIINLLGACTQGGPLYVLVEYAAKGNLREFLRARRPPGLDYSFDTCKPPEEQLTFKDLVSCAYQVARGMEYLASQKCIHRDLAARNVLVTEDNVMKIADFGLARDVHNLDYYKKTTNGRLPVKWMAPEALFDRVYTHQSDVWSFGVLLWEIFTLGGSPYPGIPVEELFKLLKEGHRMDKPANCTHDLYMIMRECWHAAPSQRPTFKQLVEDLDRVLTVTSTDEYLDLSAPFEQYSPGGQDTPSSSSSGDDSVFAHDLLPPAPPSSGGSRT
Description for Huh-7: Cytotoxicity against human Huh-7 cells assessed as inhibition of cell growth incubated for 72 hrs by CellTiter-Glo assay

Consider `COc1cccc(S(=O)(=O)n2ccc3cnc(Nc4ccc(N5CCN(C)CC5)cc4)nc32)c1`, for which the intrinsic metabolic clearance (microsomal CLint) at 50 min in the data set “in vitro [1]” came out at 165 µL/min/mg; in the data set “in vitro [10]”, 35.5 µL/min/mg. Besides, the intrinsic clearance (CLint scaled) is 32 mL/min/kg in “in vitro [2]” and 654 mL/min/kg in the data set “in vitro [6]”. For the same compound, the results for the half-life at 50 min in “in vitro [3]” and in the data set “in vitro [8]” were 4.2 min and 39 min, respectively. For the same compound, the 50% inhibitory concentration (IC50) in data set [4] is 10.4 nM; in the data set on BaF3 [5] it was 534 nM; with Huh-7, 131 nM; in the data set on BaF3 [7] it was 71.8 nM; in the data set on BaF3 [9] it was above 2000 nM.
The compound `CN1CCN(c2ccc(Nc3ncc4ccn(S(=O)(=O)c5cccc(OC(F)(F)F)c5)c4n3)cc2)CC1` gave a half-inhibitory concentration (IC50) in data set [4] of 703 nM.
Turning to `COc1cccc(S(=O)(=O)n2ccc3cnc(Nc4ccc(N(C)CCN(C)C)cc4)nc32)c1`, the concentration for half-maximal inhibition (IC50) in data set [4] was 17.1 nM; with Huh-7, 811 nM.
Take `COc1cccc(S(=O)(=O)n2ccc3cnc(Nc4ccc(N5C[C@@H]6C[C@H]5CN6C)cc4)nc32)c1`: the microsomal CLint at 50 min in the data set “in vitro [1]” was determined as 106 µL/min/mg; in the data set “in vitro [10]”, 6.4 µL/min/mg. The intrinsic metabolic clearance (CLint scaled) in “in vitro [2]” amounted to 6 mL/min/kg; in “in vitro [6]” it was 416 mL/min/kg. Moreover, the half-life at 50 min in the data set “in vitro [3]” worked out at 13.1 min; in “in vitro [8]”, 224 min. Besides, the half-inhibitory concentration (IC50) in data set [4] is 47.5 nM; in the data set with BaF3 [5] it was 632 nM; in the data set with Huh-7 it was 166 nM; in the data set on BaF3 [7] it was 126 nM; with BaF3 [9] it was above 2000 nM.
For the compound `CN1CCN(c2ccc(Nc3ncc4ccn(S(=O)(=O)c5cc(F)cc(F)c5)c4n3)cc2)CC1`, the microsomal CLint at 50 min in “in vitro [1]” was found to be 319 µL/min/mg; in the data set “in vitro [10]”, 54.8 µL/min/mg. The figures for the CLint scaled in the data set “in vitro [2]” and in the data set “in vitro [6]” were 49.4 mL/min/kg and 1250 mL/min/kg, respectively. Besides, the half-life at 50 min in the data set “in vitro [3]” was 4.4 min; in “in vitro [8]”, 35.2 min. The IC50 in data set [4] is 12.7 nM; in the data set with BaF3 [5], 376 nM; with Huh-7 it was 191 nM; in the data set with BaF3 [7], 64 nM; in the data set on BaF3 [9], above 2000 nM.
For `COc1ccc(Cl)c(S(=O)(=O)n2ccc3cnc(Nc4ccc(N5CCN(C)CC5)cc4)nc32)c1`, the IC50 in data set [4] came to 29 nM; in the data set with Huh-7 it was 298 nM.
As for `COc1cc(OC)cc(S(C)(=O)=Nc2cc(Nc3ccc(N4CCOCC4)cc3)ncc2C#N)c1` (stereo not given), the IC50 in [4] was determined as 2190 nM.
Consider `COc1cccc(S(=O)(=O)n2ccc3cnc(Nc4ccc(N5CCC(N(C)C)C5)cc4)nc32)c1` (stereo not given), for which the IC50 in data set [4] was determined as 41.8 nM; with Huh-7, 301 nM.
Consider `COc1cccc(S(=O)(=O)n2ccc3cnc(Nc4ccc(N5CCOCC5)cc4)nc32)c1`, for which the half-maximal inhibitory concentration (IC50) in data set [4] is 114 nM.
`CN1CCN(c2ccc(Nc3ncc4ccn(S(=O)(=O)c5cccnc5)c4n3)cc2)CC1`: the 50% inhibitory concentration (IC50) in [4] is 33 nM; in the data set with Huh-7, 383 nM.
On the same counts, the results for `COc1cccc(S(=O)(=O)n2ccc3cnc(Nc4ccc(N5CCC(N(C)C)CC5)cc4)nc32)c1` are 13.9 nM and 310 nM.
In [4], `CN1CCN(c2ccc(Nc3ncc4ccn(S(=O)(=O)C5CCCCC5)c4n3)cc2)CC1` returned an IC50 of 615 nM.
As for `COc1cccc(S(=O)(=O)n2ccc3cnc(Nc4ccc(N5C[C@@H](C)N[C@@H](C)C5)cc4)nc32)c1`, the IC50 in data set [4] came to 17.1 nM; in data set [11], 29.6 nM; in data set [14] it was 46.7 nM. Besides, the inhibition result in data set [12] is “Active”. Besides, the inhibition entry in [13], in [15] and in [16] was “Dose-Dependent Effect” each time.
As to `CN1CCN(c2ccc(Nc3ncc4ccn(S(=O)(=O)c5c(Cl)cccc5Cl)c4n3)cc2)CC1`, the IC50 in data set [4] stood at 55 nM; with Huh-7, 377 nM.
Turning to `CN1CCN(c2ccc(Nc3ncc4ccn(S(=O)(=O)c5cccc6c5OCO6)c4n3)cc2)CC1`, the IC50 in data set [4] stood at 29.5 nM; with Huh-7, 534 nM.
On the same counts, the results for `CN1CCN(c2ccc(Nc3ncc4ccn(S(=O)(=O)c5ccccc5Cl)c4n3)cc2)CC1` are 33.6 nM and 451 nM.
In data set [4], `COc1cccc(S(=O)(=O)n2ccc3cnc(Nc4ccc(N5CCOCC5)cc4)cc32)c1` registered a half-inhibitory concentration (IC50) of 198 nM.
As to `COc1cccc(S(=O)(=O)n2ccc3cnc(Nc4ccc(C(=O)N5CCN(C)CC5)cc4)nc32)c1`, the half-maximal inhibitory concentration (IC50) was 112 nM in data set [4] and 449 nM with Huh-7.
The compound `COc1cccc(S(=O)(=O)Nc2cc(Nc3ccc(N4CCOCC4)cc3)ncc2C#N)c1` showed an IC50 in [4] above 10000 nM.
The same measure, in the same setting: the result for `CN1CCN(c2ccc(Nc3ncc4ccn(S(=O)(=O)c5ccn(C)n5)c4n3)cc2)CC1` reads 127 nM; that for `COc1cccc(S(=O)(=O)n2ccc3cnc(Nc4ccc(N5CCN(C)CC5)cc4)nc32)c1OC`, 1340 nM.
Still for that read-out and setting: the result for `COc1cccc(S(=O)(=O)c2cnc3cnc(Nc4ccc(N5CCOCC5)cc4)cn23)c1` reads 4770 nM; that for `COc1cccc(S(C)(=O)=Nc2cc(Nc3ccc(N4CCOCC4)cc3)ncc2C#N)c1` (stereo not given), 346 nM; that for `COc1cccc(S(=O)(=O)n2ccc3cnc(Nc4ccc(CN5CCN(C)CC5)cc4)nc32)c1`, 132 nM.
Regarding `CN1CCN(c2ccc(Nc3ncc4ccn(S(=O)(=O)c5cccc(F)c5)c4n3)cc2)CC1`, 60.5 nM corresponded to half-maximal inhibition in data set [4] (IC50).
Turning to `CN1CCN(c2ccc(Nc3ncc4ccn(S(=O)(=O)c5ccccc5)c4n3)cc2)CC1`, the IC50 in [4] amounted to 74.7 nM.
For `CN1CCN(c2ccc(Nc3ncc4ccn(S(=O)(=O)c5ccccc5OC(F)(F)F)c4n3)cc2)CC1`, the half-inhibitory concentration (IC50) was 36.8 nM in [4] and 444 nM in the data set with Huh-7.
On the same counts, the results for `COc1ccccc1S(=O)(=O)n1ccc2cnc(Nc3ccc(N4CCN(C)CC4)cc3)nc21` are 16.1 nM and 240 nM.
With `COc1cccc(S(=O)(=O)c2c[nH]c3cnc(Nc4ccc(N5CCOCC5)cc4)nc23)c1`, in [4], the midpoint of inhibition, the IC50, lay at 1970 nM.
For `COc1ccc(S(=O)(=O)n2ccc3cnc(Nc4ccc(N5CCN(C)CC5)cc4)nc32)cc1`, half-maximal inhibition in data set [4] (IC50) required 893 nM.
`COc1ccc(OC)c(S(=O)(=O)n2ccc3cnc(Nc4ccc(N5CCN(C)CC5)cc4)nc32)c1`: the intrinsic metabolic clearance (microsomal CLint) at 50 min in “in vitro [1]” was determined as 283 µL/min/mg; in “in vitro [10]”, 40.5 µL/min/mg. The intrinsic metabolic clearance (CLint scaled) was determined as 36.5 mL/min/kg in the data set “in vitro [2]” and 1110 mL/min/kg in “in vitro [6]”. In addition, the half-life at 50 min in “in vitro [3]” is 4.9 min; in “in vitro [8]”, 47.7 min. Besides, the half-maximal inhibitory concentration (IC50) in data set [4] was 8.7 nM; with BaF3 [5], 405 nM; in the data set on Huh-7 it was 244 nM; in the data set with BaF3 [7], 58.3 nM; in the data set with BaF3 [9], above 2000 nM.
Regarding `C=CC(=O)N[C@H]1CCOC[C@H]1Nc1ncc2cc(-c3c(Cl)c(OC)cc(OC)c3Cl)ccc2n1` [FISOGATINIB], the values for the IC50 (in [4]; with Huh-7) were 5.3 nM and 45.9 nM, respectively.

The microsomal CLint is the rate of metabolic loss divided by the concentration. A low value points to slow turnover. The term CLint scaled denotes a measure of how fast metabolising enzymes remove a compound, apart from limits set by blood flow. Lower therefore signals slow turnover. What is called half-life is the time needed for the level to fall by half in the phase considered. A lower half-life goes with rapid decline. The term IC50 denotes the concentration that inhibits the measured activity by half.
